Reference: PMC10478824, “Development of FAPI Tetramers to Improve Tumor Uptake and Efficacy of FAPI Radioligand Therapy” (Journal of Nuclear Medicine, 2023)

Target: T1, FAP (FAP-positive HT-1080-FAP cells) (Homo sapiens, UniProt Q12884)
T1 construct: expressed in transfected cells; host or cells: HT-1080 human fibrosarcoma cells, stably transfected (HT-1080-FAP)
T1 sequence (Q12884 1-760): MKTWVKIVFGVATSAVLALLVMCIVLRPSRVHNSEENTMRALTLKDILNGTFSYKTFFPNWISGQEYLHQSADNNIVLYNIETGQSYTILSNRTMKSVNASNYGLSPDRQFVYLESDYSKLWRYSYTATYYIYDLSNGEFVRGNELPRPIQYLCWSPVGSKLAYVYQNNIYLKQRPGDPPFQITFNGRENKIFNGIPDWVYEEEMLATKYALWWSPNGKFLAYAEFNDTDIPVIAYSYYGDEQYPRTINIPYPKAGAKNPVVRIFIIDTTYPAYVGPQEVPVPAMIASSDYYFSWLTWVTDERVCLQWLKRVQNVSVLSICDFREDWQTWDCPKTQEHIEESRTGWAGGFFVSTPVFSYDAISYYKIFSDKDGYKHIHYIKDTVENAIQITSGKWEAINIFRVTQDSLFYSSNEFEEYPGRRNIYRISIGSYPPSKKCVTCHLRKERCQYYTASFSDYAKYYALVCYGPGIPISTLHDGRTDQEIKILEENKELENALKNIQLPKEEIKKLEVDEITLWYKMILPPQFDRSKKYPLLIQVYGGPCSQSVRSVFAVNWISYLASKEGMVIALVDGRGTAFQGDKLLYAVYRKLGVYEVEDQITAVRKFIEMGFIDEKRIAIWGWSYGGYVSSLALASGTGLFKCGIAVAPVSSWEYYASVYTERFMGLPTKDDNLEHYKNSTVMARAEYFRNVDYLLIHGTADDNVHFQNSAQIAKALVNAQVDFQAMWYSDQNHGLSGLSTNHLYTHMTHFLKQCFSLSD
Assay: Competitive cell-binding assay against ^68Ga-FAPI-46
Conditions: competition with ^68Ga-FAPI-46, 60 min, read-out: 50% inhibitory concentration
Description: A human fibrosarcoma cell line was stably transfected with FAP (HT-1080-FAP) and cultured, as previously described ([15]). A human glioblastoma cell line (U87MG, from the Chinese National Infrastructure of Cell Line Resource) was cultured in Dulbecco modified Eagle medium (Thermo Fischer Scientific) supplemented with 10% fetal bovine serum (Thermo Fisher Scientific). HT-1080-FAP cells were seeded in 24-well plates using RPMI 1640 medium with 10% fetal bovine serum, and the medium was replaced with fresh medium without fetal bovine serum when the cells reached 80%–90% density. ^68Ga-FAPI-46, ^68Ga-DOTA-2P(FAPI)2, ^68Ga-DOTA-4P(FAPI)4, or ^68Ga-DOTA-4P(FAPI)4 with 11.3 nmol of unlabeled FAPI-46 (for the blocking experiment) were added to the 24-well plates and incubated for 60, 90, and 120 min. For the competitive cell-binding assay, a gradient concentration (5.6 × 10^−13 to 10^−5 M) of FAPI-46, DOTA-2P(FAPI)2, or DOTA-4P(FAPI)4 was added to the cells and incubated with ^68Ga-FAPI-46 for 60 min. […] The radioactivity (counts per minute) was determined with a γ-counter (WIZARD^2 2480; PerkinElmer Inc.). […] The 50% inhibitory concentrations were determined by fitting a nonlinear regression model to the data using Prism software, version 8 (GraphPad Software Inc.).

Row | Compound | IC50 [µM]
1 | CN(CCCN1CCN(C(=O)COCCOCCOCCNC(=O)CCC(=O)NCCCC[C@H](NC(=O)CCC(=O)NCCOCCOCCOCC(=O)N2CCN(CCCN(C)c3ccc4nccc(C(=O)NCC(=O)N5CC(F)(F)C[C@H]5C#N)c4c3)CC2)C(=O)NCCCC[C@H](NC(=O)[C@H](CCCCNC(=O)CN2CCN(CC(=O)O)CCN(CC(=O)O)CCN(CC(=O)O)CC2)NC(=O)CCC(=O)NCCOCCOCCOCC(=O)N2CCN(CCCN(C)c3ccc4nccc(C(=O)NCC(=O)N5CC(F)(F)C[C@H]5C#N)c4c3)CC2)C(=O)NCCOCCOCCOCC(=O)N2CCN(CCCN(C)c3ccc4nccc(C(=O)NCC(=O)N5CC(F)(F)C[C@H]5C#N)c4c3)CC2)CC1)c1ccc2nccc(C(=O)NCC(=O)N3CC(F)(F)C[C@H]3C#N)c2c1 [DOTA-4P(FAPI)4] | 0.0156
2 | CN(CCCN1CCN(C(=O)CN2CCN(CC(=O)O)CCN(CC(=O)O)CCN(CC(=O)O)CC2)CC1)c1ccc2nccc(C(=O)NCC(=O)N3CC(F)(F)C[C@H]3C#N)c2c1 [FAPI-46, reference compound] | 0.0114
